From patent US8557800B2, “Sphingosine kinase inhibitors” (Apogee Biotechnology Corporation, priority 2005, dated 2013)

Columns and labels:
[1] = tested on: VEGF-induced vascular leakage; test: VEGF-induced vascular permeability (Miles assay); assay type: in vivo, mouse; settings: 75 mg/kg intraperitoneal or 100 mg/kg oral gavage, nude mice
Method: The effects of VEGF on vascular leakage in vivo were measured as described by Miles and Miles (Miles et al., 1952, J Physiol 118: 228). Groups of female athymic nude mice (approximately 20 g) were given intraperitoneal injections of DMSO alone or Compound 62 (75 mg/kg) in a volume of 50 microliters. In some experiments, Compound 62 was administered by oral gavage at a dose of 100 mg/kg. After 30 minutes, 100 μL of 0.5% Evan's blue dye in PBS was administered by tail vein injection. Thirty minutes later, mice received the first of 3 sequential (every 30 minutes) intradermal injections of VEGF (400 ng in 20 μL of PBS per injection) on the left hind flank. As a control, similar injections of PBS were administered on the right hind flank. Thirty minutes after the last injection, leakage of the dye from the vasculature into the skin was assessed by measuring the length and width of the spots of blue-colored skin using calipers.

T24 (bladder) = test: Human tumor cell line panel, sulforhodamine B; assay type: cell-based; settings: 48 hours, mean ± sd

For `O=C(NCc1ccncc1)C12CC3CC(C1)CC(c1ccc(Cl)cc1)(C3)C2` [Compound 62, 3-(4-Chloro-phenyl)-adamantane-1-carboxylic acid (pyridin-4-ylmethyl)-amide], the “vascular leakage in response to VEGF” value [1] was “markedly reduced” and the IC50 (T24 (bladder)) was 39.4 ± 7.4 µM.
